Measured values reported in patent publication US4382094A, “Reduced naphthalenes, their preparation and use” (Beecham Group Limited, priority 1980, dated 1983).

System: ear, irritant solution of 1% croton oil
Assay: topical anti-inflammatory activity, croton oil rat ear model (Fregnan and Torsello)
Format: in vivo, Rats, Charles River Wistar Strain, female
Details: 6 hours
Experimental: Compounds were tested for anti-inflammatory activity in a topical model based on that described by Fregnan G. B. and Torsello, A. L. (1975), Current Therapeutic Research 17, No. 4, 375-381. In outline the method is as follows:
Rats, Charles River Wistar Strain, female, 10/group. Weight range 200-240 g.
Irritant solution applied consists of 1% croton oil in tetrahydrofuran. 0.05 ml is placed on each ear, compound being included in the irritant solution on one ear. 6 hours later the ears are removed by cutting along the hairline and weighed.
-ve controls--no irritant solution.
+ve controls--irritant solution on both ears.

[1] = Rattus norvegicus, 2 mg/ear, topical, compound in irritant solution, read-out: Treated Ear % inhibition
[2] = Rattus norvegicus, topical, compound in irritant solution, read-out: Treated Ear % inhibition
[3] = 3.0 mg/ear on the other (treated) ear

Row | Structure (SMILES) | inhibition in vivo at 2 mg/ear [1] [%] | further results
1 | CC12CCC(=O)C=C1CCC(=Cc1ccc3c(c1)OCO3)C2=O (stereo not drawn) [Compound 9, 2-(3,4-Methylenedioxybenzylidene)-3,4,8,8,a-tetrahydro-8a-methyl-1,6(2H,7H)-naphthalenedione] | 100 | –
2 | CC12CCC(=O)C=C1CCC(=Cc1ccc(Cl)cc1)C2=O (stereo not drawn) [Compound 3, 2-(4-Chlorobenzylidene)-3,4,8,8a-tetrahydro-8a-methyl-1,6-(2H,7H)-naphthalenedione] | 63 | –
3 | CN(C)c1ccc(C=C2CCC3=CC(=O)CCC3(C)C2=O)cc1 (stereo not drawn) [Compound 8, 2-(4-Dimethylaminobenzylidene)-3,4,8,8a-tetrahydro-8a-methyl-1,6(2H,7H)-naphthalenedione] | – | inhibition in vivo at 1.5 mg/ear [2]: 99%
4 | CC12CCC(=O)C=C1CCC(=Cc1cccc(Cl)c1)C2=O (stereo not drawn) [Compound 5, 2-(3-Chlorobenzylidene)-3,4,8,8a-tetrahydro-8a-methyl-1,6-(2H,7H)-naphthalenedione] | 41 | –
5 | CC12CCC(=O)C=C1CCC(=Cc1cccs1)C2=O (stereo not drawn) [Compound 2, 2-(2-Thienylmethylidene)-3,4,8,8a-tetrahydro-8a-methyl-1,6(2H,7H)-naphthalenedione] | 71 | –
6 | CC12CCC(=O)C=C1CCC(=Cc1ccc(C#N)cc1)C2=O (stereo not drawn) [Compound 6, 4-[(3,4,8,8a-Tetrahydro-8a-methyl-1,6-dioxo(2H,7H)-naphthalen-2-yl)methylidene]benzonitrile] | 53 | Treated Ear wt. (2 mg/ear, topical, * p<0.05 vs control (Students t test)): 87.2 mg
7 | CC12CCC(=O)C=C1CCC(=Cc1cccc(O)c1)C2=O (stereo not drawn) [Compound 10, 2-(3-Hydroxybenzylidene)3,4,8,8a-tetrahydro-8a-methyl-1,6(2H,7H)-naphthalenedione] | 98 | –
8 | COc1ccc(C=C2CCC3=CC(=O)CCC3(C)C2=O)cc1 (stereo not drawn) [Compound 11, 2-(4-Methoxybenzylidene)-3,4,8,8a-tetrahydro-8a-methyl-1,6(2H,7H)-naphthalenedione] | 95 | –
9 | CC12CCC(=O)C=C1CCC(=Cc1ccccc1)C2O (stereo not drawn) [Compound 14, 6-Benzylidene-4,4a,5,6,7,8-hexahydro-5-hydroxy-4a-methyl-2(3H)-naphthalenon] | – | inhibition in vivo at 1.5 mg/ear [2]: 107%
10 | CC12CCC(=O)C=C1CCC(=Cc1ccccc1)C2=O (stereo not drawn) [Compound 1, 2-Benzylidene-3,4,8,8a-tetrahydro-8a-methyl-1,6(2H,7H)-naphthalenedione] | – | Non-Treated Ear % inhibition [3]: -1%; Non-Treated Ear wt. [3]: 136.5 ± 5.80 mg; inhibition in vivo at 3 mg/ear (Rattus norvegicus, 3.0 mg/ear, topical, compound in irritant solution, read-out: Treated Ear % inhibition): 70%
11 | CC12CCC(=O)C=C1CCC(=Cc1ccco1)C2=O (stereo not drawn) [Compound 4, 2-(2-Furylmethylidene)-3,4,8,8a-tetrahydro-8a-methyl-1,6(2H,7H)-naphthalenedione] | 44 | –
12 | CC12CCC(=O)C=C1CCC(=Cc1ccc([N+](=O)[O-])cc1)C2=O (stereo not drawn) [Compound 7, 4-[(3,4,8,8a-Tetrahydro-8a-methyl-1,6-dioxo(2H,7H)-naphthalen-2-yl)methylidene]nitrobenzene] | 81 | –
